Values joined by “and” are separate entries in the source; they are usually repeats but may differ in a detail not shown here. Equal values may be shown once.
Key:
M. tuberculosis H37Rv = assay: microbe, parasite or virus in culture; type: cell-based, Mycobacterium tuberculosis; conditions: for H37Rv MIC: Tables 1-4 and text; for MIC (H37Rv): Table 5
[1] = test system: M. tuberculosis H37Rv Rv1258c knockout (KO); assay: microbe, parasite or virus in culture; type: cell-based; conditions: Tables 1-4 and text; 7 days, 7H9 broth
Rv1258c efflux pump = conditions: for Efflux Ratio: H37Rv MIC / Rv1258c KO MIC
[2] = target: Purified 70S M. smegmatis bacterial ribosomes (Mycolicibacterium smegmatis, UniProt A0QSG6); assay: Ribosomal translation inhibition; type: biochemical; conditions: inhibits luciferase activity by 50%
Chain of Purified 70S M. smegmatis bacterial ribosomes (A0QSG6 whole entry): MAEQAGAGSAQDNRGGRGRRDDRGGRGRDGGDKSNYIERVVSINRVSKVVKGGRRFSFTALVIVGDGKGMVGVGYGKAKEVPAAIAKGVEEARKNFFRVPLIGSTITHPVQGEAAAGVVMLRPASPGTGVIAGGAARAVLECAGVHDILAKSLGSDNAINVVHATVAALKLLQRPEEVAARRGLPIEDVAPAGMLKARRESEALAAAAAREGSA

Protein binding, mouse = type: in vitro ADME
M. tuberculosis Erdman = assay: Mouse model of acute tuberculosis infection; type: in vivo; conditions: 200 mg/kg BID, 9 days, subcutaneous, vs control
[3] = Microsomal stability, mouse; type: in vitro ADME; conditions: mouse liver microsomes
HepG2 cells = assay: Mammalian cytotoxicity; type: cell-based
Protein binding, human = type: in vitro ADME
M. bovis BCG = type: cell-based; conditions: average of 2–3 replicates, standard deviation in parenthesis
[4] = Microsomal stability, human; type: in vitro ADME; conditions: human liver microsomes

Br.Br.Br.CNC1C(O)C(NC)C2OC3(O)C(NC(=O)Cc4ncccc4C)CC(C)OC3OC2C1O [Compound 29, 3′-Dihydro-3′-deoxy-3′(R)-(3-methylpyridin-2-yl)acetylamino spectinomycin trihydrobromide]
H37Rv MIC (M. tuberculosis H37Rv): 25 mg/L
Rv1258c KO MIC [1]: 6.3 mg/L
Efflux Ratio (Rv1258c efflux pump): 4
Ribosome IC50 [2]: 1.00 mg/L

Br.Br.Br.CNC1C(O)C(NC)C2OC3(O)C(NC(=O)Cc4cc(C)ccn4)CC(C)OC3OC2C1O [Compound 30, 3′-Dihydro-3′-deoxy-3′(R)-(4-methylpyridin-2-yl)acetylamino spectinomycin trihydrobromide]
H37Rv MIC (M. tuberculosis H37Rv): 3.1 mg/L
Rv1258c KO MIC [1]: 6.3 mg/L
Efflux Ratio (Rv1258c efflux pump): 0.5
Ribosome IC50 [2]: 0.47 mg/L

Br.Br.Br.CNC1C(O)C(NC)C2OC3(O)C(OC(C)C[C@H]3NC(=O)Cc3cccc(C)n3)OC2C1O (stereo partly drawn) [Compound 32, 3′-Dihydro-3′-deoxy-3′(R)-(6-methylpyridin-2-yl)acetylamino spectinomycin trihydrobromide]
H37Rv MIC (M. tuberculosis H37Rv): 25 mg/L
Rv1258c KO MIC [1]: 6.3 mg/L
Efflux Ratio (Rv1258c efflux pump): 4
Ribosome IC50 [2]: 0.50 mg/L

Br.Br.Br.CNC1C(O)C(NC)C2OC3(O)C(NC(=O)Cc4cc(C(C)C)ccn4)CC(C)OC3OC2C1O [Compound 33, 3′-Dihydro-3′-deoxy-3′(R)-(4-isopropylpyridin-2-yl)acetylamino spectinomycin trihydrobromide]
H37Rv MIC (M. tuberculosis H37Rv): 6.3 mg/L
Rv1258c KO MIC [1]: 1.6 mg/L
Fold change of MIC between H37Rv and Rv1258c KO (efflux) (Rv1258c efflux pump): 4 fold
Efflux Ratio (Rv1258c efflux pump): 4
Ribosome IC50 [2]: 0.36 mg/L

Br.Br.Br.CNC1C(O)C(NC)C2OC3(O)C(NC(=O)Cc4cc(OC)ccn4)CC(C)OC3OC2C1O [Compound 34, 3′-Dihydro-3′-deoxy-3′(R)-(4-methoxypyridin-2-yl)acetylamino spectinomycin trihydrobromide]
H37Rv MIC (M. tuberculosis H37Rv): 12.5 mg/L
Rv1258c KO MIC [1]: 3.1 mg/L
Efflux Ratio (Rv1258c efflux pump): 4
Ribosome IC50 [2]: 0.39 mg/L

CNC1C(O)C(NC)C2OC3(O)C(NC(=O)Cc4cc(O)ccn4)CC(C)OC3OC2C1O.Cl.Cl.Cl [Compound 35, 3′-Dihydro-3′-deoxy-3′(R)-(4-hydroxypyridin-2-yl)acetylamino spectinomycin trihydrochloride]
H37Rv MIC (M. tuberculosis H37Rv): 25 mg/L
Rv1258c KO MIC [1]: 12.5 mg/L
Efflux Ratio (Rv1258c efflux pump): 2
Ribosome IC50 [2]: 0.44 mg/L

Br.Br.Br.CN[C@@H]1[C@H](O)[C@H](NC)[C@H]2O[C@]3(O)[C@H](O[C@@H]2[C@H]1O)O[C@H](C)C[C@H]3NC(=O)Cc1ccc(OC)cn1 [Compound 38, 3′-Dihydro-3′-deoxy-3′(R)-(5-methoxypyridin-2-yl)acetylamino spectinomycin trihydrobromide]
Protein binding mouse (Protein binding, mouse): 57.3%
Reduction of bacterial load in lungs (M. tuberculosis Erdman; second new trial (Figure 3C)): 1.6 log
Microsomal stability t1/2 mouse [3]: 4.8 h
MIC (H37Rv) (M. tuberculosis H37Rv): 3.1 mg/L
H37Rv MIC (M. tuberculosis H37Rv): 3.1 mg/L
Cytotoxicity (HepG2) (HepG2 cells): >400 µg/mL
Rv1258c KO MIC [1]: 6.3 mg/L
Efflux Ratio (Rv1258c efflux pump): 0.5
Protein binding human (Protein binding, human): 51.4%
Post Antibiotic Effect (M. bovis BCG): 56 (12) h
Ribosome IC50 [2]: 0.39 mg/L
Microsomal stability t1/2 human [4]: 3.4 h

Br.Br.Br.CNC1C(O)C(NC)C2OC3(O)C(NC(=O)Cc4ccc(Br)cn4)CC(C)OC3OC2C1O [Compound 43, 3′-Dihydro-3′-deoxy-3′(R)-(5-bromopyridin-2-yl)acetylamino spectinomycin trihydrobromide]
H37Rv MIC (M. tuberculosis H37Rv): 3.1 mg/L
Rv1258c KO MIC [1]: 1.6 mg/L
Efflux Ratio (Rv1258c efflux pump): 2
Ribosome IC50 [2]: 0.42 mg/L

Br.Br.Br.CNC1C(O)C(NC)C2OC3(O)C(OC(C)C[C@H]3NC(=O)Cc3nccc(Cl)c3C(C)C)OC2C1O (stereo partly drawn) [Compound 45, 3′-Dihydro-3′-deoxy-3′(R)-(4-chloro-3-isopropylpyridin-2-yl)acetylamino spectinomycin trihydrobromide]
H37Rv MIC (M. tuberculosis H37Rv): 50 mg/L
Rv1258c KO MIC [1]: 1.6 mg/L
Fold change of MIC between H37Rv and Rv1258c KO (efflux) (Rv1258c efflux pump): 32 fold
Efflux Ratio (Rv1258c efflux pump): 32
Ribosome IC50 [2]: 2.3 mg/L and 2.31 mg/L

Br.Br.Br.CN[C@@H]1[C@H](O)[C@H](NC)[C@H]2O[C@]3(O)[C@H](O[C@@H]2[C@H]1O)O[C@H](C)C[C@H]3NC(=O)Cc1nccc(Cl)c1C [Compound 46, 3′-Dihydro-3′-deoxy-3′(R)-(4-chloro-3-methylpyridin-2-yl)acetylamino spectinomycin trihydrobromide]
Protein binding mouse (Protein binding, mouse): 36.4%
Reduction of bacterial load in lungs (M. tuberculosis Erdman; first new trial (Figure 3B)): least reduction in bacterial loads
Microsomal stability t1/2 mouse [3]: >50 h
MIC (H37Rv) (M. tuberculosis H37Rv): 3.1 mg/L
H37Rv MIC (M. tuberculosis H37Rv): 3.1 mg/L
Cytotoxicity (HepG2) (HepG2 cells): >400 µg/mL
Rv1258c KO MIC [1]: 1.6 mg/L
Efflux Ratio (Rv1258c efflux pump): 2
Protein binding human (Protein binding, human): 46.6%
Ribosome IC50 [2]: 0.59 mg/L
Microsomal stability t1/2 human [4]: >50 h

Br.Br.Br.CN[C@@H]1[C@H](O)[C@H](NC)[C@H]2O[C@]3(O)[C@H](O[C@@H]2[C@H]1O)O[C@H](C)C[C@H]3NC(=O)Cc1cc(Cl)c(F)cn1 [Compound 49, 3′-Dihydro-3′-deoxy-3′(R)-(4-chloro-5-fluoropyridin-2-yl)acetylamino spectinomycin trihydrobromide]
Protein binding mouse (Protein binding, mouse): 39.3%
Microsomal stability t1/2 mouse [3]: >50 h
MIC (H37Rv) (M. tuberculosis H37Rv): 0.8 mg/L
H37Rv MIC (M. tuberculosis H37Rv): 0.8 mg/L
Cytotoxicity (HepG2) (HepG2 cells): >400 µg/mL
Rv1258c KO MIC [1]: 0.8 mg/L
Protein binding human (Protein binding, human): 56.3%
Post Antibiotic Effect (M. bovis BCG): 116 (19) h
Ribosome IC50 [2]: 0.22 mg/L
Microsomal stability t1/2 human [4]: >50 h

CNC1C(O)C(NC)C2OC3(O)C(OC(C)C[C@H]3NC(=O)Cc3cc(OC)c(F)cn3)OC2C1O.Cl.Cl.Cl (stereo partly drawn) [Compound 50, 3′-Dihydro-3′-deoxy-3′(R)-(5-fluoro-4-methoxypyridin-2-yl)acetylamino spectinomycin trihydrochloride]
H37Rv MIC (M. tuberculosis H37Rv): 6.3 mg/L
Rv1258c KO MIC [1]: 3.1 mg/L
Efflux Ratio (Rv1258c efflux pump): 2
Ribosome IC50 [2]: 0.92 mg/L
